Data reported in the NIST ThermoML archive (doi:10.1016/j.tca.2012.05.004).

Experiment: xn = mol fraction of the nth substance listed
Details: 101.3 kPa, Liquid, Vibrating tube method

CCCC(C)O (stereo not drawn) [pentan-2-ol] + ClCCCl
mass density [kg/m3]
Details | 288.15 K | 293.15 K | 298.15 K | 303.15 K | 308.15 K | 313.15 K
x1 = 0.0509 | 1226.72 | 1219.63 | 1212.52 | 1205.37 | 1198.2 | 1191
x1 = 0.0999 | 1196.47 | 1189.53 | 1182.56 | 1175.56 | 1168.53 | 1161.46
x1 = 0.1497 | 1167.33 | 1160.55 | 1153.74 | 1146.89 | 1140.02 | 1133.12
x1 = 0.2001 | 1139.13 | 1132.52 | 1125.87 | 1119.19 | 1112.48 | 1105.73
x1 = 0.2502 | 1112.6 | 1106.17 | 1099.71 | 1093.19 | 1086.65 | 1080.06
x1 = 0.2998 | 1087.39 | 1081.13 | 1074.82 | 1068.48 | 1062.1 | 1055.67
x1 = 0.3504 | 1062.46 | 1056.4 | 1050.28 | 1044.1 | 1037.89 | 1031.63
x1 = 0.4003 | 1038.87 | 1033 | 1027.05 | 1021.06 | 1015.01 | 1008.92
x1 = 0.4498 | 1016.42 | 1010.71 | 1004.93 | 999.094 | 993.214 | 987.283
x1 = 0.4996 | 994.615 | 989.082 | 983.473 | 977.807 | 972.094 | 966.328
x1 = 0.55 | 973.401 | 967.993 | 962.539 | 957.039 | 951.485 | 945.875
x1 = 0.5998 | 953.123 | 947.916 | 942.637 | 937.302 | 931.911 | 926.465
x1 = 0.6497 | 933.494 | 928.405 | 923.275 | 918.089 | 912.85 | 907.552
x1 = 0.6997 | 914.579 | 909.663 | 904.685 | 899.659 | 894.573 | 889.432
x1 = 0.7493 | 896.637 | 891.863 | 887.037 | 882.154 | 877.213 | 872.217
x1 = 0.8001 | 878.694 | 874.079 | 869.408 | 864.68 | 859.891 | 855.042
x1 = 0.8497 | 861.674 | 857.211 | 852.695 | 848.111 | 843.467 | 838.76
x1 = 0.8991 | 845.438 | 841.13 | 836.763 | 832.331 | 827.833 | 823.267
x1 = 0.9504 | 828.863 | 824.722 | 820.52 | 816.244 | 811.899 | 807.481

CCCCCCC(C)O (stereo not drawn) [2-octanol] + ClCCCl
mass density [kg/m3]
Details | 288.15 K | 293.15 K | 298.15 K | 303.15 K | 308.15 K | 313.15 K
x1 = 0.0499 | 1215.16 | 1208.22 | 1201.27 | 1194.29 | 1187.27 | 1180.23
x1 = 0.1 | 1175.12 | 1168.45 | 1161.76 | 1155.05 | 1148.31 | 1141.54
x1 = 0.1503 | 1139.01 | 1132.67 | 1126.33 | 1119.85 | 1113.38 | 1106.89
x1 = 0.2006 | 1106.43 | 1100.33 | 1094.18 | 1087.99 | 1081.76 | 1075.51
x1 = 0.2498 | 1077.37 | 1071.56 | 1065.66 | 1059.71 | 1053.73 | 1047.71
x1 = 0.3 | – | – | – | – | 1027.49 | –
x1 = 0.3002 | 1050.06 | 1044.59 | 1038.96 | 1033.26 | – | 1021.69
x1 = 0.35 | 1025.54 | 1020.16 | 1014.7 | 1009.18 | 1003.62 | 998.027
x1 = 0.3999 | 1002.85 | 997.633 | 992.342 | 987.014 | 981.649 | 976.252
x1 = 0.4499 | 981.685 | 976.658 | 971.558 | 966.415 | 961.229 | 956.01
x1 = 0.4999 | 962.134 | 957.22 | 952.273 | 947.296 | 942.282 | 937.233
x1 = 0.5503 | 943.764 | 939.011 | 934.225 | 929.407 | 924.551 | 919.661
x1 = 0.5992 | 927.273 | 922.663 | 918.023 | 913.351 | 908.639 | 903.897
x1 = 0.6492 | 911.359 | 906.886 | 902.382 | 897.844 | 893.27 | 888.66
x1 = 0.6989 | 896.738 | 892.39 | 888.013 | 883.603 | 879.157 | 874.674
x1 = 0.7503 | 882.325 | 878.102 | 873.846 | 869.558 | 865.235 | 860.873
x1 = 0.7989 | 869.78 | 865.66 | 861.514 | 857.336 | 853.118 | 848.865
x1 = 0.8497 | 857.292 | 853.282 | 849.241 | 845.167 | 841.058 | 836.912
x1 = 0.899 | 845.686 | 841.775 | 837.835 | 833.858 | 829.849 | 825.799
x1 = 0.9492 | 834.672 | 830.858 | 827.012 | 823.127 | 819.211 | 815.252
